Experimental data: article PMC12424613, “Analysis of the resistance level and target site resistance mechanisms of Echinochloa crus-galli to penoxsulam from Hubei Province, China” (PeerJ, 2025)

Target: T1, acetolactate synthase (ALS)
T1 construct: native ALS from leaf extract of susceptible population 18-NJ (ammonium sulfate precipitated, desalted; ALS1/ALS2/ALS3 copies not separated)
Experiment: in vitro ALS activity assay (acetoin formation, […] nm) in desalted leaf enzyme extract
Assay type: biochemical, Echinochloa crus-galli

COc1cnc(OC)n2nc(NS(=O)(=O)c3c(OCC(F)F)cccc3C(F)(F)F)nc12 [penoxsulam]
IC50: 1230 nM
